Laboratory results: US12037458B2, “Process and premix for incorporating optical brighteners into a polymeric composition” (Elkem Silicones USA Corp., priority 2019, dated 2024)

Columns and labels:
[1] = Solubility of different optical brighteners in GLYMO, heated mixing (MM2); assay type: physicochemical; conditions: for # of particles observed MM2 / Amount of undissolved OBA MM2 / Brightness MM2 / Form a clear solution? Mixing Method 2: in GLYMO; for # of particles observed MM2 / Amount of undissolved OBA MM2 / Brightness MM2: heated mixing 50° C. (MM2); for Form a clear solution? Mixing Method 2: heated mixing 50° C. under nitrogen (MM2)
[2] = Saturation of optical brightener in GLYMO; assay type: physicochemical
Description: To determine the saturation level of optical brightener in GLYMO, increasing amounts of Tinopal® OB CO were mixed with GLYMO (0.25%, 0.5%, 1.0%, 2.0%, 3.0% Tinopal® OB CO), heated at 50° C. for one hour and then cooled while mixing.

[3] = Solubility of different optical brighteners in GLYMO, RT mixing (MM1)
[4] = Solubility of Tinopal OB CO in different silanes / titanate (room-temperature mixing, black light inspection); conditions: for Forms a clear solution? / Amount of undissolved Tinopal ® OB CO: 0.072 g Tinopal OB CO in 10 g of compound; for Forms a clear solution?: mixed at room temperature, stored overnight; for Amount of undissolved Tinopal ® OB CO: room temperature; for # of particles observed: OBA particles, naked eye under black light; for Brightness: drop of mixture between glass plates under black light; for Solubility of Tinopal OB CO in the compound (in words): summary of Table 2
[5] = heated at 50° C. for one hour, cooled while mixing

# of particles observed MM2 [1]	Brightness MM2 [1]	Form a clear solution? Mixing Method 2 [1]	Compound	Amount of undissolved OBA MM2 [1]	Amount of undissolved OBA MM1 ([3]; in GLYMO, RT mixing (MM1))	Amount of undissolved optical brightener ([3]; in GLYMO, room temperature)	Forms a clear solution? [4]	Amount of undissolved Tinopal ® OB CO [4]	# of particles observed [4]	Brightness [4]	Solubility of Tinopal OB CO in the compound (in words) [4]	other results
zero	high	Yes	CC(C)(C)c1ccc2oc(-c3ccc(-c4nc5cc(C(C)(C)C)ccc5o4)s3)nc2c1 [Tinopal ® OB CO]	Zero	low	low						Effect of heating (MM2) on solubility in GLYMO ([1]; MM2 versus MM1): improved the solubility; Amount of undissolved OBA MM2 ([1]; listed as Tinopal® OB CO): no undissolved particles; Concentration in GLYMO at which homogenously distributed [2, 5]: less than 1.0%; Concentration in GLYMO at which visible particles (agglomerates) were present [2, 5]: ≥ 1.0%; Average particle size of visible particles (agglomerates) ([2]; in GLYMO at concentrations of 1.0% or greater): ≥ 50 μm
>100	low	no	O=S(=O)(O)c1ccccc1C=Cc1ccc(-c2ccc(C=Cc3ccccc3S(=O)(=O)O)cc2)cc1 [Benetex ® OB-M1, benzenesulfonic acid, 2,2′-([1,1′-biphenyl]-4,4′-diyldi-2,1-ethenediyl)bis-]									
			C=C[Si](OC)(OC)OC [VTMO, vinyltrimethoxysilane]				Yes	low	0	high	relatively good solubility	
			C=C(C)C(=O)OCCC[Si](OC)(OC)OC [MEMO]				Yes	zero	0	high	relatively good solubility	
>300	high	no	C(=Cc1ccc(-c2nc3ccccc3o2)cc1)c1ccc(-c2nc3ccccc3o2)cc1 [Benetex ® OB-1 HP, benzoxazole, 2,2′-(1,2-ethenediyldi-4,1-phenylene)bis-]									

Compound	# of particles observed MM2 [1]	Brightness MM2 [1]	Form a clear solution? Mixing Method 2 [1]	Amount of undissolved OBA MM2 [1]	Amount of undissolved OBA MM1 ([3]; in GLYMO, RT mixing (MM1))	Amount of undissolved optical brightener ([3]; in GLYMO, room temperature)	Forms a clear solution? [4]	Amount of undissolved Tinopal ® OB CO [4]	# of particles observed [4]	Brightness [4]	Solubility of Tinopal OB CO in the compound (in words) [4]	other results
CCN(CC)c1nc(Nc2ccc(C=Cc3ccc(Nc4nc(Nc5cc(S(=O)(=O)[O-])ccc5S(=O)(=O)[O-])nc(N(CC)CC)n4)cc3S(=O)(=O)[O-])c(S(=O)(=O)[O-])c2)nc(Nc2cc(S(=O)(=O)[O-])ccc2S(=O)(=O)[O-])n1.[Na+].[Na+].[Na+].[Na+].[Na+].[Na+] [Tinopal ® SFP]	10-20	low	No	Low	high	high						Forms a clear solution? ([3]; 0.072 g optical brightener in 10 g GLYMO, room temperature): No; # of particles observed MM1 ([3]; in GLYMO, RT mixing (MM1)): >300; Brightness MM1 ([3]; in GLYMO, RT mixing (MM1)): low; Form a clear solution? Mixing Method 1 ([3]; in GLYMO, RT mixing (MM1)): no; # of particles observed ([3]; in GLYMO, naked eye under black light): >300; Brightness ([3]; in GLYMO, under black light): low
